Experiments:
Substance-P receptor [1] = target: T1, Substance-P receptor (Homo sapiens, UniProt P25103); experiment: Binding affinity was measured against the Tachykinin receptor 1 in CHO-expressed hNK1 using [125I]SP.
Substance-P receptor [2] = target: T1, Substance-P receptor; experiment: Binding affinity was measured against the Tachykinin receptor 1 in human IM-9 cells using [125I]Bolton-Hunter SP.; type: cell-based
Substance-P receptor [3] = target: T1, Substance-P receptor; experiment: Binding affinity was measured against the Tachykinin receptor 1 in human IM-9 cells using [3H]SP as ligand.; type: cell-based

T1 sequence (P25103 whole entry): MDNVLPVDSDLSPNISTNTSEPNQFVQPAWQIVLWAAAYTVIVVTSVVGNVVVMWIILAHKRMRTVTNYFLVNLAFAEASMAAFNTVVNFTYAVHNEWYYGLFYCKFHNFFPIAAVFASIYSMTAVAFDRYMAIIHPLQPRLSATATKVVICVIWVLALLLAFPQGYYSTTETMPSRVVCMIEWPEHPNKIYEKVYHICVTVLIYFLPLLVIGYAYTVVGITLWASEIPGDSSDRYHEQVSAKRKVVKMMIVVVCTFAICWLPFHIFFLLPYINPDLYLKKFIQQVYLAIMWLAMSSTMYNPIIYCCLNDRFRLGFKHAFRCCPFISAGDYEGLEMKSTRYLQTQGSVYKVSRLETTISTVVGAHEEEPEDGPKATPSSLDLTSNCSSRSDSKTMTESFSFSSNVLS

SMILES	IC50 (Substance-P receptor [1]) [nM]	also measured
N[C@H](COCc1cccc(Cl)c1)C(c1ccccc1)c1ccccc1	75.9	–
FC(F)(F)c1cc(CO[C@H]2C3CCN(CC3)[C@H]2C(c2ccccc2)c2ccccc2)cc(C(F)(F)F)c1 [L-709210]	195	–
COc1ccccc1[C@@H]1CC[C@@]2(CCCN[C@H]2c2ccccc2)NC1	–	IC50 (Substance-P receptor [2]): 2 nM
CN(Cc1ccccc1)C(=O)[C@H](Cc1ccc2ccccc2c1)NC(=O)[C@@H]1CCCC[C@@H]1NC(=O)c1c[nH]c2ccccc12	–	IC50 (Substance-P receptor [3]): 12.6 nM
COc1ccccc1[C@@H]1CC[C@@]2(CCCN[C@H]2c2ccccc2)N1	–	IC50 (Substance-P receptor [2]): 10000 nM
FC(F)(F)c1cc(CN[C@H]2C3CCN(CC3)[C@H]2C(c2ccccc2)c2ccccc2)cc(C(F)(F)F)c1	2	–
c1ccc(CN[C@H]2C3CC4CCC(C3)N4[C@H]2C(c2ccccc2)c2ccccc2)cc1	–	IC50 (Substance-P receptor [2]): 67.6 nM
COc1ccccc1CN1CN2CCC[C@H]1[C@@H]2c1ccccc1	–	IC50 (Substance-P receptor [2]): 0.617 nM
CN(Cc1ccccc1)C[C@H](Cc1ccc2ccccc2c1)NC(=O)[C@@H]1CCCC[C@@H]1NC(=O)c1c[nH]c2ccccc12	–	IC50 (Substance-P receptor [3]): 1260 nM
COc1ccccc1CN[C@H]1C2CC3CCCC2CN3[C@H]1C(c1ccccc1)c1ccccc1 (some centres undefined)	–	IC50 (Substance-P receptor [2]): 1.91 nM
COc1ccccc1CN[C@H]1[C@@H]2CCC[C@@H]2N[C@H]1c1ccccc1	–	IC50 (Substance-P receptor [3]): 2.4 nM
COc1ccccc1CN[C@H]1C2CCN(CC2)[C@H]1Cc1ccccc1	234	–
Cc1cc(C)cc(CO[C@H]2C3CCN(CC3)[C@H]2C(c2ccccc2)c2ccccc2)c1 [L-706125]	295	–
c1ccc(CN[C@H]2C3CCN(CC3)[C@H]2C(c2ccccc2)c2ccccc2)cc1	28.8	–
Cc1cc(C)cc(COC[C@@H](Nc2ccccc2)C(c2ccccc2)c2ccccc2)c1	81.3	–
O=C(Cc1ccccc1)N[C@H](Cc1ccc2ccccc2c1)NC(=O)[C@@H]1CCCC[C@@H]1NC(=O)c1c[nH]c2ccccc12	–	IC50 (Substance-P receptor [3]): 316 nM
N[C@H](COCc1ccccc1)C(c1ccccc1)c1ccccc1	363	–
c1ccc(CN[C@H]2C3C4CCCC3CN(C4)[C@H]2C(c2ccccc2)c2ccccc2)cc1	–	IC50 (Substance-P receptor [2]): 229 nM
COc1ccccc1CN1CCN2CCC[C@H]1[C@@H]2c1ccccc1	–	IC50 (Substance-P receptor [2]): 0.363 nM
CN(C(=O)Cc1ccccc1)[C@H](Cc1ccc2ccccc2c1)NC(=O)C1(NC(=O)c2c[nH]c3ccccc23)CCCCC1	–	IC50 (Substance-P receptor [3]): 20 nM
CN(Cc1ccccc1)C(=O)[C@H](Cc1ccccc1)NC(=O)[C@@H]1CCCC[C@@H]1NC(=O)c1c[nH]c2ccccc12	–	IC50 (Substance-P receptor [3]): 126 nM
CN(Cc1ccccc1)C(=O)[C@H](Cc1ccc2ccccc2c1)NC(=O)C1(NC(=O)c2c[nH]c3ccccc23)CCCCC1	–	IC50 (Substance-P receptor [3]): 1.26 nM
c1ccc(CN[C@H]2C3CC4CCCC(C3)N4[C@H]2C(c2ccccc2)c2ccccc2)cc1	–	IC50 (Substance-P receptor [2]): 170 nM
COc1ccccc1CN[C@H]1C2CC3CCC(C2)N3[C@H]1C(c1ccccc1)c1ccccc1	–	IC50 (Substance-P receptor [2]): 0.912 nM
c1ccc(CO[C@H]2C3CCN(CC3)[C@H]2C(c2ccccc2)c2ccccc2)cc1	75.9	–

More lines, main results first:

IC50 (Substance-P receptor [1]) [nM]	SMILES	also measured
20	FC(F)(F)c1cc(COCC2(c3ccccc3)CCCNC2)cc(C(F)(F)F)c1 (centres undefined)	–
0.2	FC(F)(F)c1cc(CO[C@H]2CCCN(Cc3nnc[nH]3)[C@H]2c2ccccc2)cc(C(F)(F)F)c1	–
0.1	O=c1[nH]nc(CN2CCC[C@H](OCc3cc(C(F)(F)F)cc(C(F)(F)F)c3)[C@@H]2c2ccccc2)[nH]1	–
0.398	CN(Cc1ccccc1)C(=O)CN1CCC[C@H](OCc2cc(C(F)(F)F)cc(C(F)(F)F)c2)[C@@H]1c1ccccc1	–
0.501	FC(F)(F)c1cc(CO[C@H]2CCCN(Cc3ncc[nH]3)[C@H]2c2ccccc2)cc(C(F)(F)F)c1	–
25.7	O=C1O[C@@H](Cc2c[nH]c3ccccc23)C(=O)N1Cc1cc(C(F)(F)F)cc(C(F)(F)F)c1	–
52.5	CC(=O)N[C@@H](Cc1c[nH]c2ccccc12)C(=O)OCc1cc(C)cc(C)c1 [L-708568]	–
39.8	FC(F)(F)c1cc(CO[C@H]2CCCN(Cc3ccco3)[C@H]2c2ccccc2)cc(C(F)(F)F)c1	–
15.1	CC(=O)N[C@@H](Cc1csc2ccccc12)C(=O)OCc1cc(C(F)(F)F)cc(C(F)(F)F)c1 [L-709400]	–
39.8	FC(F)(F)c1cc(CO[C@H]2CCCN(Cc3nnn[nH]3)[C@H]2c2ccccc2)cc(C(F)(F)F)c1	–
1	FC(F)(F)c1cc(COCC2(c3ccccc3)CCCCN2)cc(C(F)(F)F)c1 (centres undefined)	–
2690	O=C1O[C@@H](Cc2c[nH]c3ccccc23)C(=O)N1Cc1cccc(C(F)(F)F)c1	–
1	FC(F)(F)c1cc(CO[C@H]2CCCN(Cc3nnco3)[C@H]2c2ccccc2)cc(C(F)(F)F)c1	–
1	FC(F)(F)c1cc(CO[C@H]2CCCN(Cc3cnc[nH]3)[C@H]2c2ccccc2)cc(C(F)(F)F)c1	–

From ChEMBL document CHEMBL1131095, “Derivation of a three-dimensional pharmacophore model of substance P antagonists bound to the neurokinin-1 receptor” (J Med Chem, 1998)
